According to patent US12324827B2, “Combination therapy for the treatment of migraines” (The University of Chicago, priority 2019, dated 2025):

How the values were obtained:
blood CGRP = assay: CGRP plasma assay (ELISA) after recurrent spreading depression; format: in vivo, rat
Description: Blood was collected via cardiac puncture using a 21 gauge syringe needle and transferred into a BD Vacutainer K3 EDTA blood collection tube (366450, Becton, Dickinson & Co., Franklin Lakes, NJ). Samples were spun 1,500 g×10 min at 4° C. The plasma was transferred to sterile 2.0 mL, screw cap, polypropylene tubes and stored at −80° C. until analysis. Plasma samples were sent to Cayman Chemical Company (Ann Arbor, Michigan) for analysis of CGRP content using ELISA methods. According to the vendor, the detection limit is <10 pg/mL.

[1] = test system: caudal trigeminal nucleus c-fos; assay: c-fos immunostaining of caudal trigeminal nucleus after recurrent spreading depression; format: in vivo, rat; details: −4.5 mm from the obex, n=6/group
Excerpt: Induction of recurrent SD followed previously published aseptic techniques from the inventors' laboratory (8, 13, 21, 25, 26, 51) (FIG. 4). Animals were anesthetized with 5% isoflurane, which was later reduced to 1.5% inhalational isoflurane in oxygen during procedures and followed previous procedures for assessing the impact of recurrent SD after pretreatment with N2B IGF-1 (21, 51)).
One day after N2B treatment and surgery, animals were again anesthetized with 5% isoflurane in oxygen that was reduced to 1.5% during recordings of CSD followed by procedures to induce recurrent CSD every 10 minutes for 90 minutes as previously described (FIG. 4) (21,51). […]
For c-fos image analyses, the 5× digitally stored TIFF files were electronically enlarged to facilitate cell counting to 6,400×6,400 pixels and adjusted for brightness/contrast equivalently between experimental group pairs using Image J (v. 1.43i; National Institutes of Health public access). c-fos labeled nuclei were manually counted by an observer blinded to experimental conditions. Only intensely stained, round or oval-shaped nuclei were counted in lamina I-II [obex through −6.0 mm, recording the average of n=3 sections (technical replicates) at each anatomical level per animal (n≥5 biological replicates/group)]. […]

## IGF-1: human recombinant IGF-1 (#191-G1; R&D Systems), 150 μg in 50 μL sodium succinate buffer, delivered nose-to-brain
Blood CGRP; IGF-1 pretreatment, n=6/group, three samples below the detection limit
  blood (plasma) CGRP level after recurrent SD: 7.7 ± 1.6 pg/mL
Blood CGRP; IGF-1 versus vehicle
  changes in blood CGRP levels after pretreatment followed by recurrent SD: no significant (p=0.347, power=0.136) changes
[1]
  relative c-fos positive cell counts (sham set to 1.00): 0.52±0.11
